Values quoted from earlier work in Sander's compilation of Henry's law constants.
“And” between values parts separate entries of the source, which are not always exact repeats. Equal entries are not always repeated.

Assay: Henry solubility constant Hcp at 298.15 K (mol/(m3 Pa))
Conditions: cited value
[1] = reference: Burkholder et al. (2015)
[2] = reference: Burkholder et al. (2019)
[3] = reference: Sander et al. (2011)
[4] = reference: Barcelo and Hennion (1997)
[5] = reference: Sander et al. (2006)

[CH3][Hg][Cl] [chloromethylmercury]
Henry solubility constant Hcp (reference: WHO (1990)): 20

N#CCc1ccccc1 [benzeneacetonitrile]
Henry solubility constant Hcp (reference: Brockbank (2013)): 1.1

Cc1cccc(C)n1 [2,6-dimethylpyridine]
Henry solubility constant Hcp (reference: Brockbank (2013)): 0.92

N#CCCCC#N [pentanedinitrile]
Henry solubility constant Hcp (reference: Plyasunov et al. (2006)): 780

CCC(O)CC [3-pentanol]
Henry solubility constant Hcp (reference: Brockbank (2013)): 0.6

C1CCCCCCC1 [cyclooctane]
Henry solubility constant Hcp (reference: Brockbank (2013)): 7.3e-05

C=COC(C)=O [ethenyl ethanoate]
Henry solubility constant Hcp (reference: Brockbank (2013)): 0.02 | Henry solubility constant Hcp [1]: 0.02 | Henry solubility constant Hcp [2]: 0.02 | Henry solubility constant Hcp (reference: Goldstein (1982)): 0.017

Brc1ccc(Oc2c(Br)cc(Br)cc2Br)c(Br)c1 [2,2',4,4',6-pentabromodiphenyl ether]
Henry solubility constant Hcp (reference: Wania and Dugani (2003)): 2.6

CC(C)CC(C)O (centres undefined) [4-methyl-2-pentanol]
Henry solubility constant Hcp (reference: Brockbank (2013)): 0.22

O=C(O)C(Cl)(Cl)Cl [trichloroethanoic acid]
Henry solubility constant Hcp [1]: 730 | Henry solubility constant Hcp [2]: 730 | Henry solubility constant Hcp [3]: 730

CCCN(CCC)c1c([N+](=O)[O-])cc(C(F)(F)F)cc1[N+](=O)[O-] [trifluralin]
Henry solubility constant Hcp [4]: 0.0025 | Henry solubility constant Hcp (reference: HSDB (2015)): 0.096

CC[N+](=O)[O-] [nitroethane]
Henry solubility constant Hcp (reference: Brockbank (2013)): 0.21 | Henry solubility constant Hcp [1]: 0.21 | Henry solubility constant Hcp [2]: 0.21 | Henry solubility constant Hcp (reference: Gaffney and Senum (1984)): 0.21 | Henry solubility constant Hcp [5]: 0.21 | Henry solubility constant Hcp [3]: 0.21

CCCC(C)CCC [4-methylheptane]
Henry solubility constant Hcp (reference: Brockbank (2013)): 2.7e-06

Oc1ccccc1Cl [2-hydroxychlorobenzene]
Henry solubility constant Hcp (reference: Goldstein (1982)): 1.2 | Henry solubility constant Hcp (reference: Howard (1989)): 18

COc1c(Cl)ccc(Cl)c1C(=O)O [dicamba]
Henry solubility constant Hcp [4]: 82

CCCl [chloroethane]
Henry solubility constant Hcp (reference: Brockbank (2013)): 0.00081 | Henry solubility constant Hcp [1]: 0.00083 | Henry solubility constant Hcp [2]: 0.00081 | Henry solubility constant Hcp (reference: Goldstein (1982)): 0.00068

Clc1ccccc1-c1ccccc1Cl [2,2'-dichlorobiphenyl]
Henry solubility constant Hcp (reference: Murphy et al. (1983b)): 0.045

CCOP(=S)(OCC)OP(=S)(OCC)OCC [sulfotep]
Henry solubility constant Hcp [4]: 0.0099

OCc1ccccc1 [(hydroxymethyl)-benzene]
Henry solubility constant Hcp (reference: Howard (1993)): 25

COCOC [dimethoxymethane]
Henry solubility constant Hcp (reference: Brockbank (2013)): 0.061 | Henry solubility constant Hcp (reference: Pierotti et al. (1959)): 0.057

CCCCO[N+](=O)[O-] [1-butyl nitrate]
Henry solubility constant Hcp [1]: 0.01 | Henry solubility constant Hcp [2]: 0.01 | Henry solubility constant Hcp [5]: 0.01 | Henry solubility constant Hcp [3]: 0.01

CC(O)C(C)O (centres undefined) [2,3-butanediol]
Henry solubility constant Hcp [1]: 1100 | Henry solubility constant Hcp [2]: 1100

CC(=O)CC(C)C [4-methyl-2-pentanone]
Henry solubility constant Hcp (reference: Brockbank (2013)): 0.069 | Henry solubility constant Hcp (reference: Howard (1990)): 0.11

CO/N=C(/C(=O)OC)c1ccccc1CO/N=C(\C)c1cccc(C(F)(F)F)c1 [trifloxystrobin]
Henry solubility constant Hcp (reference: MacBean (2012b)): 430

ClC(Cl)(Cl)C(Cl)(Cl)Cl [hexachloroethane]
Henry solubility constant Hcp (reference: Brockbank (2013)): 0.0028 | Henry solubility constant Hcp [1]: 0.0026 | Henry solubility constant Hcp [2]: 0.0027 | Henry solubility constant Hcp (reference: Goldstein (1982)): 0.001

Cc1[nH]c(=O)n(C(C)(C)C)c(=O)c1Cl [terbacil]
Henry solubility constant Hcp [4]: 550

CC1CO1 (centres undefined) [1,2-epoxypropane]
Henry solubility constant Hcp (reference: Goldstein (1982)): 0.052 and 0.051

CCCOC(=O)c1ccccc1C(=O)OCCC [dipropyl phthalate]
Henry solubility constant Hcp (reference: Brockbank (2013)): 22

CCCC(C)CC (centres undefined) [3-methylhexane]
Henry solubility constant Hcp (reference: Brockbank (2013)): 3.2e-06

c1ccc2ncccc2c1 [benzo[b]pyridine]
Henry solubility constant Hcp (reference: Goldstein (1982)): 37

CCCCCCCCC=O [nonanal]
Henry solubility constant Hcp (reference: Brockbank (2013)): 0.011

FC(F)Cl [chlorodifluoromethane]
Henry solubility constant Hcp [1]: 0.00035 | Henry solubility constant Hcp [2]: 0.00035 | Henry solubility constant Hcp [3]: 0.00034

CCCCN(CC)C(=O)SCCC [pebulate]
Henry solubility constant Hcp [4]: 0.00084
